Legend:
purple nutsedge = assay: Test B pre/postemergence purple nutsedge; assay type: in vivo, Cyperus rotundus
How it was run: (§1)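 Response is a visual 0-to-10 score relative to untreated plants, where 0 means no effect and 10 means complete control, taken twelve to sixteen days after application. Treatments went onto soil at planting and onto foliage of 1- to 4-leaf plants, using a surfactant-containing non-phytotoxic solvent.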

duck salad = assay: Test B flood test duck salad; assay type: in vivo, Heteranthera limosa
How it was run: (§2)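 Each value is a visual injury score relative to controls, with 10 meaning complete control and 0 no effect. Evaluation took place twelve to sixteen days after the 2-leaf-stage plants were treated and kept in the greenhouse.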

rice = assay: Test B flood test rice; assay type: in vivo, Oryza sativa
How it was run: as §2

cocklebur = assay: Test B pre/postemergence cocklebur; assay type: in vivo, Xanthium strumarium
How it was run: as §1

bedstraw = assay: Test B pre/postemergence bedstraw; assay type: in vivo, Galium aparine
How it was run: as §1

bamyardgrass = assay: Test B flood test barnyardgrass; assay type: in vivo, Echinochloa crus-galli
How it was run: as §2

pigweed = assay: Test B pre/postemergence pigweed; assay type: in vivo, Amaranthus retroflexus
How it was run: as §1

surinam grass = assay: Test B pre/postemergence surinam grass; assay type: in vivo, Brachiaria decumbens
How it was run: as §1

smallflower flatsedge = assay: Test B flood test smallflower flatsedge; assay type: in vivo, Cyperus difformis
How it was run: as §2

corn = assay: Test B pre/postemergence corn; assay type: in vivo, Zea mays
How it was run: as §1

rape = assay: Test B pre/postemergence rape; assay type: in vivo, Brassica napus
How it was run: as §1

velvetleaf = assay: Test B pre/postemergence velvetleaf; assay type: in vivo, Abutilon theophrasti
How it was run: as §1

wild oat = assay: Test B pre/postemergence wild oat; assay type: in vivo, Avena fatua
How it was run: as §1

blackgrass = assay: Test B pre/postemergence blackgrass; assay type: in vivo, Alopecurus myosuroides
How it was run: as §1

wheat = assay: Test B pre/postemergence wheat; assay type: in vivo, Triticum aestivum
How it was run: as §1

morningglory = assay: Test B pre/postemergence morningglory; assay type: in vivo, Ipomoea hederacea
How it was run: as §1

[1] = Postemergence, Rate 125 g/ha, scale of 0 to 10 where 0 is no effect and 10 is complete control
[2] = Preemergence, Rate 125 g/ha, 0 is no effect, 10 is complete control
[3] = Preemergence, Rate 250 g/ha, scale 0 to 10, 0 is no effect, 10 is complete control
[4] = Preemergence, Rate 500 g/ha, scale 0 to 10 (0 no effect, 10 complete control)
[5] = Rate 62 g/ha, Postemergence, scale of 0 to 10 where 0 is no effect and 10 is complete control
[6] = Rate 250 g/ha, Postemergence, scale 0 to 10, 0 is no effect, 10 is complete control
[7] = Rate 500 g/ha, Postemergence, scale 0 to 10
[8] = Rate 62 g/ha, headed Pre-emergence (flood test species), scale 0 to 10 (0 no effect, 10 complete control)
[9] = Rate 125 g/ha, Pre-emergence, flood test species, scale 0 to 10 where 0 is no effect and 10 is complete control
[10] = Rate 250 g/ha, Pre-emergence, flood-test species, scale 0 to 10, 0 is no effect, 10 is complete control
[11] = Rate 500 g/ha, headed Pre-emergence (flood test species), scale 0 to 10 (0 no effect, 10 complete control)
[12] = Preemergence, Rate 62 g/ha, scale of 0 to 10 where 0 is no effect and 10 is complete control

SMILES: CCN(Cc1ccccc1)C(=O)n1oc(=O)n(C(C)C)c1=O [Compound 166]
- Nutsedge plant response rating (purple nutsedge; [1]): 0
- Nutsedge plant response rating (0 to 10 scale) (purple nutsedge; [2]): 0
- Nutsedge plant response rating (purple nutsedge; [3]): 0
- Nutsedge plant response rating (purple nutsedge; [4]): 0
- Nutsedge plant response rating (purple nutsedge; [5]): 0
- Plant response rating, Nutsedge (purple nutsedge; [6]): 0
- Nutsedge plant response rating (purple nutsedge; [7]): 0
- Ducksalad plant response rating (duck salad; [8]): 0
- Ducksalad plant response rating (duck salad; [9]): 0
- Ducksalad plant response rating (duck salad; [10]): 0
- Plant response rating, Ducksalad (duck salad; [11]): 0
- Rice plant response rating (rice; [8]): 0
- Rice plant response rating (rice; [9]): 0
- Rice plant response rating (rice; [10]): 0
- Plant response rating, Rice (rice; [11]): 0
- Cocklebur plant response rating (cocklebur; [1]): 0
- Cocklebur plant response rating (cocklebur; [12]): 0
- Cocklebur plant response rating (0 to 10 scale) (cocklebur; [2]): 0
- Cocklebur plant response rating (cocklebur; [3]): 0
- Cocklebur plant response rating (cocklebur; [4]): 0
- Cocklebur plant response rating (cocklebur; [5]): 0
- Plant response rating, Cocklebur (cocklebur; [6]): 0
- Cocklebur plant response rating (cocklebur; [7]): 0
- Bedstraw plant response rating (bedstraw; [1]): 0
- Bedstraw plant response rating (bedstraw; [12]): 0
- Bedstraw plant response rating (0 to 10 scale) (bedstraw; [2]): 0
- Bedstraw plant response rating (bedstraw; [3]): 0
- Bedstraw plant response rating (bedstraw; [4]): 0
- Bedstraw plant response rating (bedstraw; [5]): 0
- Plant response rating, Bedstraw (bedstraw; [6]): 1
- Bedstraw plant response rating (bedstraw; [7]): 5
- Barnyardgrass plant response rating (bamyardgrass; [8]): 0
- Barnyardgrass plant response rating (bamyardgrass; [9]): 0
- Barnyardgrass plant response rating (bamyardgrass; [10]): 0
- Plant response rating, Barnyardgrass (bamyardgrass; [11]): 0
- Redroot pigweed plant response rating (pigweed; [1]): 0
- Redroot pigweed plant response rating (pigweed; [12]): 0
- Redroot pigweed plant response rating (0 to 10 scale) (pigweed; [2]): 0
- Redroot pigweed plant response rating (pigweed; [3]): 0
- Redroot pigweed plant response rating (pigweed; [4]): 0
- Redroot pigweed plant response rating (pigweed; [5]): 0
- Plant response rating, Redroot pigweed (pigweed; [6]): 2
- Redroot pigweed plant response rating (pigweed; [7]): 3
- B. signalgrass plant response rating (surinam grass; [1]): 0
- B. signalgrass plant response rating (surinam grass; [12]): 0
- B. signalgrass plant response rating (0 to 10 scale) (surinam grass; [2]): 0
- B. signalgrass plant response rating (surinam grass; [3]): 0
- B. signalgrass plant response rating (surinam grass; [4]): 4
- B. signalgrass plant response rating (surinam grass; [5]): 0
- Plant response rating, B. signalgrass (surinam grass; [6]): 0
- B. signalgrass plant response rating (surinam grass; Rate 500 g/ha, Postemergence, scale 0 to 10, 0 no effect, 10 complete control): 0
- S. Flatsedge plant response rating (smallflower flatsedge; [8]): 0
- S. Flatsedge plant response rating (smallflower flatsedge; [9]): 0
- S. Flatsedge plant response rating (smallflower flatsedge; [10]): 0
- S. Flatsedge plant response rating (smallflower flatsedge; Rate 500 g/ha, Pre-emergence, flood test species, scale 0 to 10 (0 no effect, 10 complete control)): 0
- Corn plant response rating (corn; [1]): 0
- Corn plant response rating (corn; [12]): 0
- Corn plant response rating (0 to 10 scale) (corn; [2]): 0
- Corn plant response rating (corn; [3]): 0
- Corn plant response rating (corn; [4]): 0
- Corn plant response rating (corn; [5]): 0
- Plant response rating, Corn (corn; [6]): 0
- Corn plant response rating (corn; [7]): 0
- Rape plant response rating (rape; [1]): 0
- Rape plant response rating (rape; [12]): 0
- Rape plant response rating (0 to 10 scale) (rape; [2]): 0
- Rape plant response rating (rape; [3]): 0
- Rape plant response rating (rape; [4]): 0
- Rape plant response rating (rape; [5]): 0
- Plant response rating, Rape (rape; [6]): 0
- Velvetleaf plant response rating (velvetleaf; [12]): 0
- Velvetleaf plant response rating (0 to 10 scale) (velvetleaf; [2]): 0
- Velvetleaf plant response rating (velvetleaf; [3]): 5
- Velvetleaf plant response rating (velvetleaf; [4]): 6
- Plant response rating, Velvetleaf (velvetleaf; [6]): 0
- Velvetleaf plant response rating (velvetleaf; [7]): 0
- Wild oats plant response rating (wild oat; [12]): 0
- Wild oats plant response rating (0 to 10 scale) (wild oat; [2]): 0
- Wild oats plant response rating (wild oat; [3]): 0
- Wild oats plant response rating (wild oat; [4]): 2
- Plant response rating, Wild oats (wild oat; [6]): 0
- Wild oats plant response rating (wild oat; [7]): 2
- Blackgrass plant response rating (blackgrass; [1]): 4
- Blackgrass plant response rating (blackgrass; [12]): 0
- Blackgrass plant response rating (0 to 10 scale) (blackgrass; [2]): 0
- Blackgrass plant response rating (blackgrass; [3]): 4
- Blackgrass plant response rating (blackgrass; [4]): 5
- Blackgrass plant response rating (blackgrass; [5]): 0
- Plant response rating, Blackgrass (blackgrass; [6]): 7
- Blackgrass plant response rating (blackgrass; [7]): 8
- Wheat plant response rating (wheat; [12]): 0
- Wheat plant response rating (0 to 10 scale) (wheat; [2]): 0
- Wheat plant response rating (wheat; [3]): 0
- Wheat plant response rating (wheat; [4]): 0
- Plant response rating, Wheat (wheat; [6]): 0
- Wheat plant response rating (wheat; [7]): 3
- Morningglory plant response rating (morningglory; [1]): 1
- Morningglory plant response rating (morningglory; [12]): 0
- Morningglory plant response rating (0 to 10 scale) (morningglory; [2]): 0
- Morningglory plant response rating (morningglory; [3]): 0
- Morningglory plant response rating (morningglory; [4]): 0
- Morningglory plant response rating (morningglory; [5]): 1
- Plant response rating, Morningglory (morningglory; [6]): 2
- Morningglory plant response rating (morningglory; [7]): 2
